# Data from patent US7098241B2, “Thiophene hydroxamic acid derivatives” (Hoffmann-La Roche Inc., priority 2002, dated 2006).
# Assays:
# [1] = tested on: acetylated histone H3 in HT29 human colon carcinoma xenografts; assay: Acetylation levels of histone H3 in HT29 tumor bearing mice; format: in vivo, NMRI nude mice; conditions: for acetylated H3, BLU/1 μg histone protein: HT29 xenograft, mean; for acetylated H3, BLU % (BLU percent versus vehicle control): vehicle = 100
# Protocol: Determination of Acetylation Levels of Histone H3 in Tumor Bearing Mice
# The HT-29 cell line is derived from a human colon adenocarcinoma and was obtained from ATCC and kept in an in house working cell bank for pharmacological use. Cells were cultured in RPMI1640/2 mM L-Glutamin medium supplemented with 10% heat inactivated FCS. For inoculation HT29 tumor cells are removed (Trypsin-EDTA, 50 U/mg) from culture flasks and transferred into culture medium (RPMI 1640, 10% heat inactivated FCS), washed and resuspended in sterile PBS to achieve a final cell concentration of 5×10^6/100 μl. Cell suspension was carefully mixed by regular shaking to avoid cell aggregation and filled into a 1.0 ml graded syringe. After s.c. inoculation of HT29 human colon carcinoma cells (5×10^6/100 μl) in the right upper quarter of ventral breast region of NMRI nude mice, animals were inspected 2–3 times per week until xenografts reached a volume of roughly 1000 mm^3 or more, sufficient for analysis of histone acetylation. After single i.p. application of 400 mg/kg of the compound of example 1, formulated as microsuspension in 7.5% modified gelatin with 0.22% NaCl solution, the respective group of animals was sacrificed 3, 6, 12, and 24 h after dosing. Tumors were excised for analysis of acetylated histones (H3). An aliquot of tumors (ca. 200 mg) was analyzed for acetylated H3. Histones were extracted from xenografts by standardized methods (Richon, V. M., et al., PNAS 97 (2000) 10014–10019; Yoshida, M., et al., J. Biol. Chem. 265 (1990) 17174–17179), separated and acetylated H3 identified by Slot Blot and Immuno Blot techniques (SB-IB, Bio-Rad Laboratories GmbH, Munich, Germany) using anti-acetyled-H3 Pabs (UpState Biotechnology, Cat. #06-599). Histone protein was determined (Pierce Kit) and adjusted to 3 mg/ml to apply a standardized amount of 1 μg histone protein for H3 analysis in SB-IB. Quantification of acetylated H3 was performed by ECL (Enhanced Chemo Luminescence, Amersham Pharmacia, Hybond™ ECL™ Nitrocellulose membrane) measuring bioluminescence with the Lumi-Imager instrument (Roche Diagnostics). Data are expressed either as BLU/μg histone protein (BLU=Bio-Luminescence-Units), or as BLU percent versus vehicle control. After single administration of the compound of example 1, there was a marked and significant increase of acetylated H3 lasting for up to 24 h compared to the vehicle groups. The maximum acetylation was attained 6 h after dosing. A tabulated summary of the mean values and percentual changes are depicted below.
# [2] = tested on: PC-3 prostate carcinoma cells xenograft; assay: Antitumor activity in a PC-3 xenograft model; format: in vivo, NMRI nude mice; conditions: 15 days of treatment over 19 days, vs vehicle group
# Protocol: Determination of Antitumor Activity in a PC-3 Xenograft Model
# PC-3 prostate carcinoma cells were originally obtained from the NCI collection and were deposited after expansion in the Roche cell bank Penzberg. Tumor cell line was routinely cultured in RPMI 1640 Medium containing 10% FBS and 2 mM L-glutamine at 37° C. in a water-saturated atmosphere at 5% CO2. Culture passage was performed with trypsin/EDTA 1× (Roche Diagnostics) splitting twice a week. Cell passage 3 was used in the present study.
# At the day of cell injection, cells were harvested from culture flasks (Greiner T 75), transferred into 50 ml culture medium, washed once and resuspended in PBS. After an additional washing with PBS, the final cell titer was measured with a Neubauer-Chamber. The tumor cell suspension (PBS) was vortexed carefully (to reduce cell aggregation) and kept on ice. The cell suspension was filled into a 1.0 ml syringe. To generate primary tumors, 2×10^6 PC-3 tumor cells in a volume of 100 μl PBS were injected subcutaneously into the right flank of each mouse (NMRI nude mice). After s.c. inoculation of tumor cells, measurable tumors developed in all animals. Mice were staged and randomized on day 10 according to the primary tumor dimensions. 15 days daily oral dosing was carried out using the compound of example 1 and compound 3 of WO 93/07148, WO 95/31977, U.S. Pat. No. 5,369,108 as test article. 90 male NMRI nude mice were divided into 6 study groups. Each group consisted of 15 male animals. The individual groups were given the test article, formulated as microsuspensions in 7.5% modified gelatin with 0.22% NaCl solution, once daily by oral route over 19 days (3 cycles of 5 days treatment and a 2-day drug free period each). The application volume was 10 ml/kg. The oral doses chosen were 25, 50, 100, and 200 mg/kg of example 1 and 200 mg/kg of compound 3 of patent '108. The study was terminated on day 28 after tumor cell injection when the vehicle group reached the termination criteria.
# [3] = 3 h after single i.p. 400 mg/kg
# [4] = 6 h after single i.p. 400 mg/kg
# [5] = 12 h after single i.p. 400 mg/kg
# [6] = 24 h after single i.p. 400 mg/kg
smiles,measurement,setting,value
"C[C@@H](NC(=O)c1ccc(C(=O)NO)s1)c1ccccc1 [Example 1, (R)-thiophene-2,5-dicarboxylic acid 2-hydroxyamide 5-[(1-phenyl-ethyl)-amide]]","acetylated H3, BLU/1 μg histone protein",[1]; [3],57824 BLU/1 μg
same,"acetylated H3, BLU % (BLU percent versus vehicle control)",[1]; [3],466%
same,"acetylated H3, BLU/1 μg histone protein",[1]; [4],98717 BLU/1 μg
same,"acetylated H3, BLU % (BLU percent versus vehicle control)",[1]; [4],502%
same,"acetylated H3, BLU/1 μg histone protein",[1]; [5],75378 BLU/1 μg
same,"acetylated H3, BLU % (BLU percent versus vehicle control)",[1]; [5],447%
same,"acetylated H3, BLU/1 μg histone protein",[1]; [6],40965 BLU/1 μg
same,"acetylated H3, BLU % (BLU percent versus vehicle control)",[1]; [6],269%
same,duration of marked and significant increase of acetylated H3 compared to vehicle,[1]; single i.p. 400 mg/kg,up to 24 h
same,time of maximum acetylation after dosing,[1]; single i.p. 400 mg/kg,6 h
same,tumor weight inhibition,[2]; 25 mg/kg oral once daily,15%
same,tumor weight inhibition,[2]; 50 mg/kg oral once daily,36%
same,tumor weight inhibition,[2]; 100 mg/kg oral once daily,51%
same,tumor weight inhibition,[2]; 200 mg/kg oral once daily,81%
